{"source": "patent US10989721B2", "about": "“Additive channels” (Emulate Inc., priority 2016, dated 2021)", "molecules": {"B1": {"name": "hu5C8 (IgG2σ): IgG2σ variant of hu5C8 with engineered Fc region that eliminates affinity for FcγRIIa (antibody, chains of the INN, looked up, V domains shown)", "VH": "QVQLVQSGAEVVKPGASVKLSCKASGYIFTSYYMYWVKQAPGQGLEWIGEINPSNGDTNFNEKFKSKATLTVDKSASTAYMELSSLRSEDTAVYYCTRSDGRNDMDSWGQGTLVTVSS", "VL": "DIVLTQSPATLSVSPGERATISCRASQRVSSSTYSYMHWYQQKPGQPPKLLIKYASNLESGVPARFSGSGSGTDFTLTISSVEPEDFATYYCQHSWEIPPTFGGGTKLEIK", "modifications": "IgG2σ engineered Fc lacking FcγRIIa binding"}}, "format_in_all_cases": "cell-based, human", "key": {"platelets": {"test_system": "platelets", "experiment": "Vessel-On-Chip blood perfusion: platelet coverage/aggregation by fluorescence imaging (CD41 label)", "details": "for platelet aggregate formation compared to untreated blood: hu5C8 240 μg/mL, sCD40L 10 ng/ml, alone or combined, 4 donors, 60 μl/minute", "protocol": "(§1) Briefly, human blood was drawn in citrate buffer and used within 4 hours. Platelets were stained using fluorescently labeled non-blocking antibodies for the platelet surface marker CD41 and low dosages of fluorescent fibrinogen were added in order to visualize fibrin deposition. Blood was re-calcified in order to re-establish the full coagulation potential, then introduced in the biomimetic vessel-on-chip from the main inlet (embodiments of inlets shown in FIG. 18A-1, FIG. 18A-2 and FIG. 19C). The outlet of the chip was connected to a pulling syringe pump with a system of tubing and connectors made of medical grade silicon that excludes any metal components or potential causes of platelet activation (FIG. 5A).\n(§2) After 14 minutes of perfusion, the flow was interrupted and the chips were immediately imaged via fluorescence microscopy (FIG. 18C and FIG. 19D). In healthy conditions, endothelial cells will provide an antithrombotic surface where blood can flow smoothly, and indeed we detected minimal platelet adhesion or fibrin deposition in our vessel-on-chip after blood perfusion in control conditions, FIG. 18C, Blood.\nCell-monolayer integrity: Transmission light microscopy was routinely used to assess cell-monolayer integrity prior to each experiment. Before every experiment, each one of the endothelialized channels was inspected via light microscopy. Samples showing any sign of discontinuity in the endothelium were discarded. Vascular leakage assay as test for tissue integrity: The ability of cells to form a confluent monolayer was monitored for one week measuring vascular leakage of dextran (ThermoFisher). In order to measure vascular leakage the vascular channel was perfused with cell culture medium containing fluorescent dextran-cascade blue (3 kDa, ThermoFisher). The apical compartment was perfused with plain medium (without FBS). At various time points, the effluent from the chip was collected, and the relative fluorescence of the top and bottom compartments were measured using a standard plate reader. […] TNF-alpha Stimulation: In some experiment endothelial cells were stimulate with 50 ng/ml of TNF (Sigma) for 6 hours in order to induce vascular inflammation before blood perfusion. Experiments with Blood: Blood Samples And Endothelium: Citrated human blood (Research Blood Components, Cambridge, Mass.) was used within 4 hours of a blood draw in order to minimize pre-analytical effects on platelet function. Before every experiment, each one of the endothelialized channels (i.e. microchannels having an endothelial cell layer) was inspected via light microscopy. Samples showing any sign of discontinuity in the endothelium were discarded. […] USA) was at room temperature for 20 minutes. Cloning, Expression and Purification: Generation of IgG2σ was previously described (Vafa, O. et al. An engineered Fc variant of an IgG eliminates all immune effector functions via structural perturbations. Methods 65:114-126 (2014)). 5c8 human IgG1 and human IgG2-Sigma Fc variants were produced in Sino Biological Inc. Gene fragments encoding the 5c8 heavy and light chains were synthesized and cloned into mammalian expression vectors. DNA was produced and used in transient transfections with HEK293. Antibodies were purified using Protein A affinity chromatography and formulated in phosphate-buffered saline (DPBS), pH 7.4. Blood Pre-treatment and Perfusion: Formation of IC (preformed IC): Hu5C8, IgG2σ (control) (both provided by Janssen or provided as described herein) For studies with preformed IC, Hu5C8 or IgG2σ as an isotype control were combined with sCD40L (Tonbo Biosciences, San Diego, Calif.) in PBS, in a ratio of 1 molecule of sCD40L to 3000 molecules of antibody. After 20 minutes incubation at room temperature, the solution was diluted in a blood sample to reach the final concentration of 240 μg/ml (Hu5C8) and 10 ng/ml (sCD40L). […]"}, "fibrin": {"test_system": "fibrin", "experiment": "Vessel-On-Chip blood perfusion: fibrin deposition by fluorescent fibrinogen imaging", "details": "for fibrin deposition on the endothelium compared to untreated blood: hu5C8 240 μg/mL, sCD40L 10 ng/ml, alone or combined, 4 donors, 60 μl/minute", "protocol": "as §1, §2\nCell-monolayer integrity: Transmission light microscopy was routinely used to assess cell-monolayer integrity prior to each experiment. Before every experiment, each one of the endothelialized channels was inspected via light microscopy. Samples showing any sign of discontinuity in the endothelium were discarded. Vascular leakage assay as test for tissue integrity: The ability of cells to form a confluent monolayer was monitored for one week measuring vascular leakage of dextran (ThermoFisher). In order to measure vascular leakage the vascular channel was perfused with cell culture medium containing fluorescent dextran-cascade blue (3 kDa, ThermoFisher). The apical compartment was perfused with plain medium (without FBS). At various time points, the effluent from the chip was collected, and the relative fluorescence of the top and bottom compartments were measured using a standard plate reader. […] TNF-alpha Stimulation: In some experiment endothelial cells were stimulate with 50 ng/ml of TNF (Sigma) for 6 hours in order to induce vascular inflammation before blood perfusion. Experiments with Blood: Blood Samples And Endothelium: Citrated human blood (Research Blood Components, Cambridge, Mass.) was used within 4 hours of a blood draw in order to minimize pre-analytical effects on platelet function. Before every experiment, each one of the endothelialized channels (i.e. microchannels having an endothelial cell layer) was inspected via light microscopy. Samples showing any sign of discontinuity in the endothelium were discarded. […] USA) was at room temperature for 20 minutes. […]"}, "re-calcified blood": {"test_system": "re-calcified blood", "experiment": "On-chip anticoagulation of outflowing re-calcified blood through the anticoagulant port", "details": "sodium citrate introduced through the anticoagulant port next to the outflow port", "from_the_text": "In order to functionally test the system, re-calcified blood was perfused through the inlet while anticoagulant, e.g. citrate buffer, was introduced online from the port situated next to the outflow port. Thus, blood obtained from the effluent of chips equipped with the anticoagulant port or without anticoagulant port were compared (FIG. 6). From a qualitative point of view the difference was striking.\nIn order to functionally test the additive channel (i.e. microfluidic chamber(s)) attached to the outflow port of a Vessel-On-Chip, re-calcified blood was perfused through the inlet port while citrate was introduced online from a port situated next to the outflow port, flowing through the additive channel. Thus, blood obtained from the effluent of chips equipped with the anticoagulant port (additive channel) or without anticoagulant port were compared (FIG. 6). From a qualitative point of view the difference was striking."}, "ICAM1": {"test_system": "ICAM1", "experiment": "ICAM1 immunostaining of endothelium on-chip", "details": "TNF-α 50 ng/ml, 6 hours", "from_the_text": "ICAM1 is shown with examples identified by white arrows. One example of a DAN stained nuclei is shown inside of a white circle.\nDiverse structural characteristics of blood clots induced by the two experimental stimuli were captured via scanning electron microscopy (SEM) as colored images in FIG. 18D."}, "[1]": {"test_system": "thrombin anti-thrombin complex (TAT)", "experiment": "Thrombin anti-thrombin (TAT) ELISA in plasma from chip effluent", "details": "outflow samples; TNF-α pre-treatment of endothelium, or sCollagen or hu5C8/sCD40L in blood before perfusion", "protocol": "Thrombin converts fibrinogen into fibrin during clot formation, and anti-thrombin plays a role in maintaining homeostasis by inhibiting the effect of thrombin. Formation of TAT in the microdevice confirms that local and intrinsic generation of thrombin, a potent platelet agonist, occurs in the model and that counter regulatory mechanisms for coagulation are retained. Thus, blood sampled from the Vessel-On-Chip was analyzed for thrombin anti-thrombin complex (TAT), an accepted clinical biomarker for procoagulation^48,49. […] An enzyme-linked immunosorbent assay (ELISA) was used to quantify the thrombin anti-thrombin complex (TAT).\nThrombin-Anti Thrombin (TAT) measurement via ELISA: Thrombin Anti-Thrombin (TAT) levels were analyzed in plasma from blood flowing out of the chip device by removing a sample from the outflow port. Thus TAT levels were evaluated in sample effluents collected from the outflow port of the chip using the Human TAT ELISA Kit (Siemens Healthineers) according to the user manual.\nBlood sampled from the Vessel-On-Chip outflow port was analyzed for thrombin anti-thrombin complex (TAT), a factor released upon activation of the coagulation cascade and one of the biomarkers associated with thrombotic events occurring in patients affected with deep vein thrombosis (DVT) or SLE^45,46. […]"}, "[2]": {"test_system": "hu5C8-mediated thrombosis", "experiment": "hu5C8-mediated thrombosis on-chip, FcγRIIa dependence (platelet coverage, fibrin deposition, TAT)", "details": "with sCD40L 10 ng/ml, IV.3 1 μg/ml pre-block of FcγRIIa, or IgG2σ variant in place of hu5C8", "from_the_text": "Recent studies conducted on humanized mice expressing the human Fcγ receptors (FCGR2A) have shown that this receptor plays a role in thrombosis leading to the IC-mediated toxicity^12,16,21. […] In order to investigate if the IC5c8-induced thrombosis that we observed in our vessel-on-chip system also relies on an Fc-mediated mechanism, we used two different tool molecules: IgG2σ and IV.3 (FIG. 25A). The IgG2σ variant of hu5C8 has an engineered Fe region^48 that eliminates affinity for the FcγRIIa, while the monoclonal antibody IV.3 is a blocking antibody binding to FcγRIIa. Briefly, equimolar concentrations of IgG2σ or hu5c8 were incubated with 10 ng/ml of sCD40L for 20 minutes to form ICIgG2σ or IC5c8, respectively.\nSome of the blood samples were treated with IV.3 (1 μg/ml) for 10 minutes to block the FcγRIIa, and then incubated for 20 more minutes with IC5c8. Finally, blood alone (control) or blood incubated with IC5c8, ICIgG2σ or IV.3 was perfused through the biomimetic microfluidic-on-chip for about 10 minutes. We tested 15 donors and all the tested conditions described above were tested in duplicates and analyzed as percentage of platelet coverage based on fluorescence microscopic imaging (FIG. 25B). Five of the donors were also tested for fibrin deposition (FIG. 25C). Finally, effluents plasma obtained from a total of 7 of the donors (including the 5 mentioned before) were used to assess TAT via ELISA (FIG. 25D). […]\nBlood from several human donors were aliquoted into groups for the following treatments: controls (PBS), sCD40L, combined hu5C8/sCD40L, combined hu5C8 (IgG2σ)/sCD40L combined, and combined hu5C8/sCD40L/IV.3. Each condition was tested with a minimum of 3 donors to a maximum of 15 donors, and all conditions were tested in duplicates and analyzed for platelet coverage (FIG. 25B), fibrin deposition (FIG. 25C), or increased formation of TAT measured in the eluates (FIG. 25D). […]"}, "[3]": {"details": "TNF-α 50 ng/ml 6 hours endothelial pre-treatment or sCollagen 10 μg/ml in blood, vs blood alone"}}, "note": "“Also recorded” adds a separate entry of the source. Structures can show the parent of a compound that is named as a salt. Positions of bridges follow the written chain, without caps; N, C: chain ends. Non-standard residues stand in square brackets, D forms with d. Residues, ends and D or L forms follow the SMILES beside them. hArg = N=C(N)NCCCC[C@H](N)C(=O)O; Mpa = O=C(O)CCS"}
{"molecule": "N=C(N)NCCCC[C@@H]1NC(=O)CCSSC[C@@H](C(N)=O)NC(=O)[C@@H]2CCCN2C(=O)[C@H](Cc2c[nH]c3ccccc23)NC(=O)[C@H](CC(=O)O)NC(=O)CNC1=O", "note": "[Eptifibatide] ([Mpa][hArg]GDWPC-NH2; disulfide 1-7)", "values": [{"measurement": "effects of pro-thrombotic conditions (TNF-α, sCollagen) on platelet coverage and fibrin deposition", "setting": "platelets; adding Eptifibatide, n=4 donors (FIG. 18E)", "result": "suppressed"}, {"measurement": "fibrin signal (image analysis)", "setting": "fibrin; Eptifibatide 2 ug/ml, samples treated with TNF-α, n=4", "result": "still detectable"}]}
{"molecule": "O=C(O)CC(O)(CC(=O)O)C(=O)O", "note": "[sodium citrate]", "values": [{"measurement": "state of blood collected at the end of each experiment", "setting": "re-calcified blood", "result": "soluble (not clotted)"}]}
{"molecule": "TNF-α", "values": [{"measurement": "areas of platelet coverage", "setting": "platelets; [3]", "result": "increased"}, {"measurement": "expression of ICAM1 in the endothelium compared to the control", "setting": "ICAM1", "result": "increased expression"}, {"measurement": "fibrin signal intensity", "setting": "fibrin; [3]", "result": "increased"}, {"measurement": "levels of TAT", "setting": "[1]", "result": "significantly increased; also recorded: elevated"}]}
{"molecule": "hu5C8: humanized monoclonal IgG1 antibody against CD40L (anti-CD154)", "values": [{"measurement": "platelet aggregate formation compared to untreated blood", "setting": "platelets", "result": "no significant treatment-related effects"}, {"measurement": "fibrin deposition on the endothelium compared to untreated blood", "setting": "fibrin", "result": "no significant treatment-related effects"}]}
{"molecule": "sCD40L: soluble CD40 ligand; recombinant human sCD40 Ligand", "values": [{"measurement": "platelet aggregate formation compared to untreated blood", "setting": "platelets", "result": "no significant treatment-related effects"}, {"measurement": "increase in platelet coverage over untreated control, some donors", "setting": "platelets; sCD40L alone, Example 5", "result": "about 2 fold"}, {"measurement": "mean increase in platelet coverage compared to controls", "setting": "platelets; sCD40L alone, Example 5", "result": "not statistically significant"}, {"measurement": "fibrin deposition on the endothelium compared to untreated blood", "setting": "fibrin", "result": "no significant treatment-related effects"}]}
{"molecule": "B1", "values": [{"measurement": "hu5C8-mediated thrombosis on-chip (platelet coverage, fibrin deposition, TAT)", "setting": "[2]", "result": "did not show signs of thrombosis"}, {"measurement": "hu5C8-mediated thrombosis on-chip (platelet coverage, fibrin deposition, TAT)", "setting": "[2]; listed as IgG2σ", "result": "suppressed"}, {"measurement": "hu5C8-mediated thrombosis on-chip (platelet coverage, fibrin deposition, TAT)", "setting": "[2]; listed as hu5C8-IgG2σ", "result": "not detected"}]}
